Legend:
[1] = Micro testing of dye in Aquify MPS as a stand alone solution; type: cell-based; settings: dissolved in Aquify MPS
From the text: FD&C Blue No 1, Sanolin Blue, and Remazol Blue dissolved in Aquify® MPS (CIBA Vision) are submitted for micro testing as a stand alone solution.

[2] = Colorant stability in lens care solution (visible spectrum); type: physicochemical; settings: in Aquify MPS
Protocol: The colorant stability has also been tested for FD&C Blue No 1 in Aquify® MPS stored at 25° and 45° C. for 94 days. […] This gives us a shelf-life estimation based on colorant stability alone of approximately a year for FD&C Blue No 1 in Aquify® MPS. The colorant stability has also been tested for Vitosyn Blue in a lens care solution described above stored at 25° and 45° C. for 52 days. […] This gives a shelf life estimation based on colorant stability alone for approximately 7 months for Vitosyn Blue in the lens care solution.

CCN(Cc1cccc(S(=O)(=O)[O-])c1)c1ccc(C(=C2C=CC(=[N+](CC)Cc3cccc(S(=O)(=O)[O-])c3)C=C2)c2ccccc2S(=O)(=O)[O-])cc1.[Na+].[Na+] [FD&C Blue No 1]
micro testing as a stand alone solution [1]: passes all micro testing | shelf-life estimation based on colorant stability alone [2]: approximately a year | change of visible spectrum from time 0 ([2]; 25° and 45° C., 94 days): has not changed significantly

From patent US8062607B2, “Lens care methods and kits” (Novartis AG, priority 2006, dated 2011)
